The values below come from PMC10099666, “Structure Elucidation, Total Synthesis, Antibacterial In Vivo Efficacy and Biosynthesis Proposal of Myxobacterial Corramycin” (Angewandte Chemie (International Ed. in English), 2022).

Data set [1] relates to mammalian cell lines.
The subject of data set [2] is Enterococcus faecalis 1069 VanB. Type of data set: cell-based. How it is done: (§1) 5. Determination of the minimal inhibitory concentration (MIC) in vitro The MIC of Corramycin was evaluated following the Clinical & Laboratory Standard Institute (CLSI; https://clsi.org) and EUCAST (https://eucast.org) guidelines. First, inoculi of the bacterial test strains were prepared by culturing isolated colonies in cation-adjusted Müller Hinton broth (CAMHB; 2 g L-1 beef infusion solids, 1.5 g L-1 starch, 17.5 g L-1 casein hydrolysates, final pH 7.4) at 37 °C and 180 rpm for 18 h. Next, Corramycin, which was dissolved in DMSO, was transferred into the first row of a 96-well plate to reach an end concentration of 64 µg mL-1 (in 100 µL total volume). A 1:1 serial dilution in cation-adjusted Mueller Hinton broth (CAMHB) of the test compound was done from the top row to the bottom row of the 96-well plate to reach an end concentration of 0.125 µg mL-1 in the bottom row. Afterwards, the respective test strains were transferred into the wells, reaching a total volume of 100 µL and 5x10^5 colony-forming units (CFU) mL-1. After a 20 to 22 h of incubation, the optical density was evaluated on a microplate reader and the MIC endpoint was determined as the lowest concentration of antibiotic at which there was no visible growth observed. Each MIC experiment was performed in duplicates. Table S 4 depicts the MIC values of Corramycin against all bacterial strains tested in this study. […]

The test system of data set [3] is Klebsiella pneumoniae 1705966. Type of data set: cell-based. Conditions: strain 1705966; CAMHB, CLSI/EUCAST broth microdilution, 5x10^5 CFU mL-1, 20-22 h, duplicates. How it is done: as §1
In general terms: Broth dilution looks for growth in wells or tubes with falling amounts of substance.

The subject of data set [4] is Salmonella typhimurium ATCC13311. Format: cell-based. Conditions: strain ATCC13311; CAMHB, CLSI/EUCAST broth microdilution, 5x10^5 CFU mL-1, 20-22 h, duplicates. How it is done:
as §1

Data set [5] deals with Enterobacter cloacae 17059482. Format: cell-based. The settings on record: strain 17059482; CAMHB, CLSI/EUCAST broth microdilution, 5x10^5 CFU mL-1, 20-22 h, duplicates. The protocol:
(§2) 5. Determination of the minimal inhibitory concentration (MIC) in vitro The MIC of Corramycin was evaluated following the Clinical & Laboratory Standard Institute (CLSI; https://clsi.org) and EUCAST (https://eucast.org) guidelines. First, inoculi of the bacterial test strains were prepared by culturing isolated colonies in cation-adjusted Müller Hinton broth (CAMHB; 2 g L-1 beef infusion solids, 1.5 g L-1 starch, 17.5 g L-1 casein hydrolysates, final pH 7.4) at 37 °C and 180 rpm for 18 h. Next, Corramycin, which was dissolved in DMSO, was transferred into the first row of a 96-well plate to reach an end concentration of 64 µg mL-1 (in 100 µL total volume). A 1:1 serial dilution in cation-adjusted Mueller Hinton broth (CAMHB) of the test compound was done from the top row to the bottom row of the 96-well plate to reach an end concentration of 0.125 µg mL-1 in the bottom row. Afterwards, the respective test strains were transferred into the wells, reaching a total volume of 100 µL and 5x10^5 colony-forming units (CFU) mL-1. After a 20 to 22 h of incubation, the optical density was evaluated on a microplate reader and the MIC endpoint was determined as the lowest concentration of antibiotic at which there was no visible growth observed. Each MIC experiment was performed in duplicates. Table S 4 depicts the MIC values of Corramycin against all bacterial strains tested in this study.
(§3) Table S 4. MIC values of Corramycin against all bacterial strains tested in this study. […]

In data set [6] the test system is Escherichia coli NCTC13441. Type of data set: cell-based. Conditions: strain NCTC13441; CAMHB, CLSI/EUCAST broth microdilution, 5x10^5 CFU mL-1, 20-22 h, duplicates. The protocol:
as §2, §3

Data set [7] deals with Escherichia coli DSM46345. Format: cell-based. The settings on record: strain DSM46345; CAMHB, CLSI/EUCAST broth microdilution, 5x10^5 CFU mL-1, 20-22 h, duplicates. How it is done:
as §2, §3

Data set [8] concerns Escherichia coli 1705863. Type of data set: cell-based. Conditions: strain 1705863; CAMHB, CLSI/EUCAST broth microdilution, 5x10^5 CFU mL-1, 20-22 h, duplicates. How it is done: as §2, §3
In data set [9] the test system is Enterococcus faecium A6349. Format: cell-based. Conditions: strain A6349; CAMHB, CLSI/EUCAST broth microdilution, 5x10^5 CFU mL-1, 20-22 h, duplicates. The protocol: as §2, §3
For data set [10], the system named is Escherichia coli ATCC35218. Type of data set: cell-based. The settings on record: strain ATCC35218; CAMHB, CLSI/EUCAST broth microdilution, 5x10^5 CFU mL-1, 20-22 h, duplicates. The protocol: as §2, §3
Data set [11] relates to Enterobacter cloacae DSM46348. Format: cell-based. The settings on record: strain DSM46348; CAMHB, CLSI/EUCAST broth microdilution, 5x10^5 CFU mL-1, 20-22 h, duplicates. The protocol: as §2, §3
Data set [12] has as its system Enterococcus faecium DSM17050. Type of data set: cell-based. The settings on record: strain DSM17050; CAMHB, CLSI/EUCAST broth microdilution, 5x10^5 CFU mL-1, 20-22 h, duplicates. How it is done:
as §2, §3

In data set [13] the test system is Escherichia coli NCTC10418. Type of data set: cell-based. Conditions: strain NCTC10418; CAMHB, CLSI/EUCAST broth microdilution, 5x10^5 CFU mL-1, 20-22 h, duplicates. How it is done: as §2, §3
In data set [14] the test system is Klebsiella pneumoniae 1705949. Type of data set: cell-based. The settings on record: strain 1705949; CAMHB, CLSI/EUCAST broth microdilution, 5x10^5 CFU mL-1, 20-22 h, duplicates. How it is done: as §2, §3
The test system of data set [15] is Escherichia coli MG1655 WT. Format: cell-based. Conditions: strain MG1655 WT; CAMHB, CLSI/EUCAST broth microdilution, 5x10^5 CFU mL-1, 20-22 h, duplicates. How it is done: as §2, §3

Usually MIC stands for the smallest concentration in the dilution series that meets the test's criterion for growth inhibition. A low value points to a more susceptible organism.

Values after ≈ are worked out from the molar mass of the structure shown. *1 amine or outer side, *2 acyl side, *3 side chain or, on linkers, in order; H or OH if unused. Where a SMILES comes first, the peptide text is derived from it. [ ]: non-standard residue; d: D form. The star is where a group is joined. Ava(2S,3R-(OH)2,4S-OMe) = CO[C@@H](CN[*:1])[C@H](O)[C@H](O)C(=O)[*:2]; dHis(βS-OH,π-Me) = Cn1cncc1[C@@H](O)[C@@H](N)C(=O)O; Butanoyl(2R-OH,3S-OH) = C[C@H](O)[C@@H](O)C(=O)*; Val(3-OH) = CC(C)(O)[C@H](N)C(=O)O; NMeF = CN[C@@H](Cc1ccccc1)C(=O)O

Consider `CO[C@@H](CNC(=O)[C@H](NC(=O)[C@H](O)[C@H](C)O)[C@H](O)c1cncn1C)[C@H](O)[C@H](O)C(=O)N(C)[C@@H](Cc1ccccc1)C(=O)NCC(=O)N[C@H](C(=O)N[C@@H](CO)C(=O)N[C@H](C(=O)N[C@@H](CC(C)C)C(=O)N[C@@H](CO)C(=O)O)C(C)(C)O)C(C)(C)O` [Corramycin] ({Butanoyl(2R-OH,3S-OH)}-[dHis(βS-OH,π-Me)][Ava(2S,3R-(OH)2,4S-OMe)][NMeF]G[Val(3-OH)]S[Val(3-OH)]LS-OH), for which, in data set [1], the Cytotoxicity result was “no cytotoxicity”. Besides, the MIC in data set [2] was 16 µg/mL (≈ 13.5 µM); in [3], above 64 µg/mL; in data set [4], 4 µg/mL (≈ 3.38 µM); in [5], above 64 µg/mL; in data set [6], 4 µg/mL (≈ 3.38 µM); in data set [7] it was 32 µg/mL (≈ 27 µM). For the same compound, the minimum inhibitory concentration (MIC) in data set [8] was 8 µg/mL (≈ 6.76 µM); in [9] it was above 64 µg/mL; in data set [10], 1 to 4 µg/mL; in [11] it was 32 µg/mL (≈ 27 µM); in data set [12], 64 µg/mL (≈ 54 µM); in [13], 8 µg/mL (≈ 6.76 µM). Further, the MIC in data set [14] is 64 µg/mL (≈ 54 µM); in data set [15], 8 to 16 µg/mL.
